What all share (assay type): biochemical
The subject of assay [1] is picALuc. Nature of the assay: Experiment 7: inhibition of luminescence reaction by substrate metabolites with or without NP-40. The conditions noted are these: metabolite 1 μM; for luminescence value on addition of substrate metabolite: picALuc 100 nM, nCTZ 8 μM, 60 minutes incubation; for suppression of the decreased ratio in the luminescence value by addition of a surfactant: NP-40 (+) versus NP-40 (−). As for the experimental part:
CTM, CTO, or CTMD was added to a mixture solution having the composition described below so that a final concentration was 0 M or 1 μM, followed by incubation at room temperature for 60 minutes. The luminescence value was then measured. At this time, as the measurement device, a GloMax (registered trademark) Navigator Microplate Luminometer (manufactured by Promega) was used. The time indicating the maximum luminescence value (time from addition of the substrate) varies greatly depending on each condition. Therefore, in this experiment, the luminescence value immediately after the addition of the substrate was compared, rather than the maximum luminescence value, so that the amount of the substrate consumed due to the luminescence reaction and the amount of the substrate oxidation due to elapsed time were not taken into consideration. FIG. 10A is graphs showing the correlation between the relative light unit (vertical axis) and the presence or absence of the surfactant and the substrate metabolites (horizontal axis). FIG. 10B is graphs showing the relationship between the rate of decrease in the amount of luminescence due to the addition of the substrate metabolites (vertical axis) and the presence or absence of the surfactant (horizontal axis).
NP-40 (final concentration 0% or 0.01%) picALuc (final concentration 100 nM) nCTZ (final concentration 8 μM) […]
Buffer (137 mM NaCl, 9.6 mM KH2PO4, 2.7 mM KCl, pH 7.0, remainder)

The test system of assay [2] is picALuc. Put plainly: Experiment 1: luminescence reaction of picALuc and CTZh in the presence of surfactant and ethanol. Conditions: luminescent enzyme picALuc for example 1 nM, CTZh, EtOH. Here is the method: When a luminescent enzyme and a luminescent substrate were allowed to react in the presence of a surfactant and an alcohol, how the luminescence characteristics of the luminescent substrate change was examined. First, the luminescent enzyme and the surfactant described below were diluted in a buffer (137 mM NaCl, 9.6 mM KH2PO4, 2.7 mM KCl, pH 7.0) to obtain an enzyme solution with different concentrations of the luminescent enzyme and the surfactant.
Also, coelenterazine h (CTZh), which is the luminescent substrate, was dissolved in ethanol (EtOH) so that a final concentration thereof was 2.4 mM, to obtain an ethanol solution of CTZh. […]
Then, 50 μL of the enzyme solution and 50 μL of the substrate solution were mixed. The luminescence value was measured immediately after mixing. […] FIG. 1A is graphs showing a change in luminescence intensity over time. […] FIG. 1B is graphs showing the correlation between the maximum value of the normalized luminescence intensity (vertical axis) and the concentration of the luminescent enzyme and the concentration of the surfactant (horizontal axis). FIG. 1C is graphs showing the correlation between the half-life of the luminescence reaction (horizontal axis) and the concentration of the luminescent enzyme and the concentration of the surfactant (vertical axis). […]

Assay [3] has as its target T1, NanoLuc (Oplophorus gracilirostris, UniProt Q9GV45, A31E/A60N/A81I/F95D/I117V/K70R/L54V/L99Q/M102K/N193R/P142E/Q151K/Q38R/Q45L/V71I/Y165I).
T1 construct: purchased Promega
Put plainly: Experiment 2: luminescence reaction of NanoLuc and CTZh in the presence of surfactant and ethanol. Conditions: luminescent enzyme NanoLuc for example 10 nM, CTZh, EtOH. Here is the method:
The experiment was performed in the same manner as in Experiment 1 except that NanoLuc (manufactured by Promega) was used as a luminescent enzyme and NP-40 or CHAPS was used as a surfactant. FIG. 3A is graphs showing a change in luminescence intensity over time. […] FIG. 3B is graphs showing the correlation between the maximum value of the normalized luminescence intensity (vertical axis) and the concentration of the luminescent enzyme and the concentration of the surfactant (horizontal axis). FIG. 3C is graphs showing the correlation between the half-life of the luminescence reaction (horizontal axis) and the concentration of the luminescent enzyme and the concentration of the surfactant (vertical axis).

The subject of assay [4] is picALuc. Nature of the assay: Experiment 3: luminescence reaction of picALuc and nCTZ with methanol and NP-40. The conditions noted are these: picALuc 100 nM, nCTZ 8 μM, methanol. As for the experimental part: The experiment was performed in the same manner as in Experiment 1 except that methanol (MeOH) manufactured by FUJIFILM Wako Pure Chemical Corporation) was used as an alcohol, NP-40 was used as a surfactant, and native coelenterazine (nCTZ, final concentration 8 μM) (manufactured by FUJIFILM Wako Pure Chemical Corporation) was used as a luminescent substrate. At this time, the final concentration of the luminescent enzyme (picALuc) was set to 100 nM. FIG. 4 is a graph showing a change in luminescence intensity over time.

Assay [5] relates to picALuc. Nature of the assay: Experiment 8: LC-MS of substrate consumed and substrate metabolites produced in luminescence reaction. Conditions: NP-40 0.01% versus 0%, picALuc 100 nM, nCTZ 8 μM. As for the experimental part:
By LC-MS analysis of a reaction solution containing picALuc and nCTZ, the effect of a surfactant (NP-40) on the amount of the substrate (nCTZ) consumed and the amount of the substrate metabolites (CTM, CTO, CTMD) produced was examined.
A substrate solution (100 μL) having the following composition was added to an enzyme solution (100 μL) having the following composition, to prepare a reaction solution.
At 0 minutes of the luminescence reaction (before the addition of the substrate solution), 10 minutes after the luminescence reaction, or 60 minutes after the luminescence reaction, 1/1000 (volume ratio) of hydrochloric acid was added to the reaction solution to stop the luminescence reaction, and methanol, which was five times the amount of the reaction solution, was added, followed by centrifugation. Then, the supernatant was collected to remove the luminescent enzyme. After that, each reaction solution was analyzed with an LC-MS device to measure the respective amounts of nCTZ, CTM, CTO, and CTMD (FIG. 11). The measurement conditions at this time are as follows.
It was thought that the amount of nCTZ was greater than the actual amount when NP-40 was added due to ion effects. Therefore, it was normalized to the amount of nCTZ when NP-40 was not added. Furthermore, the fact that CTM, CTO, and CTMD were already present in the reaction solution at 0 minutes of luminescence reaction is thought to be caused by converting nCTZ to these compounds during storage of nCTZ. Therefore, the amount of nCTZ consumed and the respective amounts of CTM, CTO, and CTMD produced were calculated by subtracting the amount of each component that was present before the reaction (FIG. 12).

Assay [6] has as its system streptavidin-fused picALuc. Put plainly: Experiment 4: simulated detection system, biotinylated BSA detected with streptavidin-fused picALuc. Here is the method: In this experiment, as a simulated detection system, biotinylated bovine serum albumin (BSA) was immobilized on a base of a 96-well plate and detection was performed using streptavidin-fused picALuc (FIG. 6A). Specifically, 100 μL of a biotinylated BSA solution (final concentration 10 μg/mL) was first added to each well. After each well was washed with a washing buffer (PBST (0.1% Tween)), blocking was performed by addition of 200 μL of a blocking buffer (20% Immnoblock (manufactured by KAC Co., ltd.) in PBS) to each well. After each well was washed with a washing buffer again, 100 μL of a streptavidin-fused picALuc solution (final concentration 1 μg/mL, diluted with 5% Immunoblock in PBST) was added to each well. Each well was washed with a washing buffer.
Then, immediately before the luminescent substrate was added, NP-40 was diluted with a buffer (PBS) so that the final concentration was 0.002 to 0.2%, and 100 μL of the resulting diluted solution was added to each well. Next, 100 μL of the substrate solution prepared in the same manner as in Experiment 1 was added to each well. The luminescence value was measured immediately after the substrate solution was added. At this time, as the measurement device, GloMax (registered trademark) Navigator Microplate Luminometer (manufactured by Promega) was used. FIG. 6B is a graph showing a change in luminescence intensity over time. […] FIG. 6C is a graph showing the correlation between the maximum value of the relative light unit (vertical axis) and the concentration of the surfactant (horizontal axis). FIG. 6D is a graph showing the correlation between the integrated value of the relative light unit (vertical axis) and the concentration of the surfactant (horizontal axis). The integrated value is the integrated value obtained for 30 minutes after the addition of the substrate solution.

Entries after “also recorded” stand apart in the source; their conditions may differ.

T1 sequence (Q9GV45 other isoform, or with tags, fused parts or gaps with the stated changes): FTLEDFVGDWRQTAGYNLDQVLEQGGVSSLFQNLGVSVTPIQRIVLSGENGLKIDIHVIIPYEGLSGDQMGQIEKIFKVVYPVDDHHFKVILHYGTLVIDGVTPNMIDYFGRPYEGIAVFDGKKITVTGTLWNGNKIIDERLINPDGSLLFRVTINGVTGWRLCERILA

Regarding `Nc1ncc(-c2ccc(O)cc2)nc1Cc1ccccc1` [CTM, coelenteramine], the figures for the “luminescence value on addition of substrate metabolite” value (shortened to “luminescence value on addition”) in assay [1] (NP-40 (+) 0.01%) and in assay [1] (NP-40 (−)) were “a decrease in the luminescence value was clearly observed; also recorded: a decrease in the luminescence value was small” and “the luminescence value significantly decreased”, respectively. In addition, the “suppression of the decreased ratio in the luminescence value by addition of a surfactant” value (“suppression of the decreased ratio” below) in assay [1] was “no significant suppression was observed”.

With `O=c1[nH]cc(-c2ccc(O)cc2)nc1Cc1ccccc1` [CTO, 3-benzyl-5-(4-hydroxyphenyl) pyrazin-2 (1H)-one], the entries for the “luminescence value on addition” value in assay [1] (NP-40 (+) 0.01%) and in assay [1] (NP-40 (−)) were “a decrease in the luminescence value was small” and “a decrease in the luminescence value was observed”, respectively. Also, the “suppression of the decreased ratio” value in assay [1] is recorded as “a tendency to significantly suppress the decreased ratio”.

Turning to `CC(CCC(=O)NCCC[N+](C)(C)CCCS(=O)(=O)O)C1CCC2C3C(O)CC4CC(O)CCC4(C)C3CC(O)C12C` (centres unmarked) [CHAPS], the “maximum value of the normalized luminescence intensity” value in assay [2] and in assay [3] was “enhancement of the luminescence intensity was also observed” each time.

For the compound `O=C(Cc1ccc(O)cc1)Nc1ncc(-c2ccc(O)cc2)nc1Cc1ccccc1` [CTMD, coelenteramide], the “suppression of the decreased ratio” value in assay [1] was “a tendency to significantly suppress the decreased ratio”. In addition, the “luminescence value on addition” value in assay [1] (NP-40 (−)) is given as “the luminescence value significantly decreased”.

Turning to “poly(oxyethylene)=octylphenyl ether [NP-40]”, the “maximum value of the normalized luminescence intensity” value in assay [2] is on record as “enhancement of the luminescence intensity was also observed”. The “change in luminescence intensity over time” value in assay [4] was “sustained luminescence and enhancement of the luminescence intensity were observed”. Besides, in assay [5], the “amount of CTM produced when the surfactant was added” value is listed as “decreased”, the “amount of CTMD produced when the surfactant was added” value is listed as “increased”, the “amount of CTO produced when the surfactant was added” value is “remained almost unchanged” and the “amount of nCTZ consumed when the surfactant was added” value is reported as “increased”. The “maximum value of the relative light unit versus when NP-40 was not added” value in assay [6] (0.1% NP-40) is reported as 2.2 times. Also, the “integrated value of the relative light unit versus when NP-40 was not added” value in assay [6] (0.1% NP-40, integrated for 30 minutes after addition of substrate solution) is 3.2 times. Besides, the “maximum value of the relative light unit and sustained luminescence” value in assay [6] (NP-40 0.002 to 0.2%) is “an increase in the maximum value of the relative light unit and the sustained luminescence were observed dependently on the concentration”. Further, the “maximum value of the normalized luminescence intensity” value in assay [3] is given as “enhancement of the luminescence intensity was also observed”.

The record behind these values is patent US20250388810A1, “Kit for Sustaining Luminescence of Luminescent Substrate and Method for Sustaining Luminescence of Luminescent Substrate” (SHIMADZU CORPORATION, priority 2024, published 2025).
